# Target: T1, peroxisome proliferator-activated receptor gamma (PPARγ) (Homo sapiens, UniProt P37231)
# T1 sequence (P37231 223-505 limits assumed): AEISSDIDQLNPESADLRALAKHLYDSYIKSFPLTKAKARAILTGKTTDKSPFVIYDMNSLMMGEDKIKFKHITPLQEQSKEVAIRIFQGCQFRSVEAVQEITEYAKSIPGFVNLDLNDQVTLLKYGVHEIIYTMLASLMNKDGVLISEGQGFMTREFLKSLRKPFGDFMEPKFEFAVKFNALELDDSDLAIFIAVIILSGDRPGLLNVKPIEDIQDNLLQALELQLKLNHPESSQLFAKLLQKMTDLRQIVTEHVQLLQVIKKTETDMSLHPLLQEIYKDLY
# Assay: fluorescence polarization probe displacement
# Type: binding
smiles,measurement,value
O=c1c(-c2ccc(O)cc2)coc2cc(O)cc(O)c12 [genistein],IC50,23.9 µM
